This is an account of results in doi:10.1101/2021.04.29.441652v1 (biorxiv, 2021).

Sequence of human σ2 receptor (TMEM97) (Q5BJF2 whole entry): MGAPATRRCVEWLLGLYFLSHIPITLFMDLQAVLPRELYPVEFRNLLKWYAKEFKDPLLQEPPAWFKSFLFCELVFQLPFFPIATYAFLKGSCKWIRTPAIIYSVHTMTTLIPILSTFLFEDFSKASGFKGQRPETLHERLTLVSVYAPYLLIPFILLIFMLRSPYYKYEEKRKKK

The experiment addresses human σ2 receptor (TMEM97) (Homo sapiens, UniProt Q5BJF2). Kind of experiment: biochemical. The class given is Expi293 membranes. The following applies: read-out: % of control remaining.
`C[C@H]1[C@H](N2CCCC2)CCN1Cc1cn2cc(Br)ccc2n1` [ZINC000672564445]: the remaining activity at 1 µM was determined as 69.7%. `CCC1(N2CCOCC2)CCN(C(=O)C2=NN(C)C(=O)CC2)CC1` [ZINC000863492725]: the remaining activity at 1 µM came to 179%. The value for `CN1CCCC[C@@H]1C(=O)NCC1(O)CN(C(=O)CCc2cn[nH]c2)C1` [ZINC001043772717] was 116%.

With `NC[C@@H](NC(=O)C(=O)NCCN1CCSCC1)C1CCCC1` [ZINC000420063417], the remaining activity at 1 µM was 94.1%. Regarding `CC(C)Cc1ccc(C(=O)Nc2ccc(OCCN3CCN(C)CC3)cc2)cc1` [ZINC000608224751], the remaining activity at 1 µM stood at 75.6%. In the case of `CN1CCN(c2ncc(CN3CCN(CC4CC4)CC3)cn2)CC1` [ZINC000130668661], the remaining activity at 1 µM is 68.6%. The value for `CN(C[C@H]1CCCN1C)C(=O)[C@]1(C)CC(c2ccccc2Cl)=NO1` [ZINC001362573982] was 94.8%; that for `CCC(C)(C)N1CCN(c2cc(C(F)F)ncn2)CC1` [ZINC000894429059] was 33.6%. With `O=C(c1cccnn1)N1CCC(O)(CNc2cncc(Cl)n2)CC1` [ZINC001067478391] the figure was 104%. With `FC(F)(F)c1ccnc([C@H]2CCN(C[C@@H]3C[C@H]3c3ccccc3)C2)n1` [ZINC000897616680] the figure was 5.1%. Take `O=C(N[C@@H]1CCN(CCC2CCCC2)C[C@@H]1O)C1(C(F)F)CCC1` [ZINC001099969021]: the remaining activity at 1 µM was determined as 28.5%. With `C[C@H](Nc1nc(N)nc(N)n1)c1ccccc1C(F)(F)F` [ZINC000858362097] the figure was 142%; with `Cc1cc(C)cc(C2=CCN(CCC(=O)N3CCc4ccccc43)CC2)c1` [ZINC001168222793], 13.7%.

Turning to `CCN1CC[C@@H](NC(=O)c2ccnc(-n3cncn3)c2)C[C@@H]1C` [ZINC000948091407], the remaining activity at 1 µM was found to be 112%. The value for `CCC[C@@H]1C[C@H]1C(=O)NCC1(O)CN(C(=O)C2CN(C(C)=O)C2)C1` [ZINC001046261579] was 114%. In the case of `Cc1cnc(C(=O)N2C[C@H]3CN(C(=O)CN(C)C(C)C)C[C@H]3C2)cn1` [ZINC001055138151], the remaining activity at 1 µM is 103%. On to `CC(C)CC[C@@H](CO)N[C@H](C)c1nc2c(s1)CCCC2` [ZINC000624110289], for which the remaining activity at 1 µM came to 49.3%. Consider `O=C(C[C@@H]1CCCN1CCOc1cccc([N+](=O)[O-])c1)c1cccs1` [ZINC000430988927], for which the remaining activity at 1 µM is 7.5%. As for `CC[C@H](c1ccccc1)N1CCC(C#N)(c2ccccn2)CC1` [ZINC000376738332], the remaining activity at 1 µM was 84%.

In the case of `Cc1ccc(N2CCN(C(=O)C(=O)N[C@@H]3CN(C4CC4)C[C@@H]3C)CC2)cc1` [ZINC000809405032], the remaining activity at 1 µM stood at 99.4%. The value for `Cc1nc(O)[nH]c1C(=O)NC[C@H]1CCN([C@H](C)C(=O)NC2CC2)C1` [ZINC001028614115] was 115%; that for `C[C@@H]1CN([C@H]2CCc3ccccc3NC2=O)C[C@H]1NC(=O)/C=C\C(C)(C)C` [ZINC001206651458] was 109%; that for `Cn1ccc(N2CC[C@@H](N[C@H]3CCN(C(=O)CC4CCC4)C3)C2=O)n1` [ZINC001018665695] was 120%. With `C[C@@H](N[C@H]1Cc2ccccc2NC1=O)[C@@H]1C[C@H]1c1ccc(Cl)s1` [ZINC000528002641] the figure was 84%.

As to `CO[C@H](C)CS(=O)(=O)N1CCN(C(=O)C(=O)N2CCCC2)CC1` [ZINC000442921898], the remaining activity at 1 µM is 111%.

In the case of `CNC[C@H](C)NC(=O)C(=O)NCc1ccc(N2CCO[C@@H](C)C2)nc1` [ZINC000659691253], the remaining activity at 1 µM was 82.1%. On to `O=C(Nc1cscc1Cl)C(=O)N[C@@H]1CCN(CC2CC2)C1` [ZINC000635049325], for which the remaining activity at 1 µM worked out at 53.2%.

In the case of `FC(F)(F)c1ccnc([C@H]2CCN(CCCc3ccc4c(c3)CCO4)C2)n1` [ZINC001308961074], the remaining activity at 1 µM was found to be 2.4%. The value for `CC1(C)Cc2cc(C(=O)N3CCC[C@@H](N4CCCC4)CC3)ccc2O1` [ZINC000584233558] was 22.7%; that for `Cc1cc(C)nc(NC[C@@H](O)CNC(=O)[C@@H]2CCc3c[nH]nc3C2)n1` [ZINC001105862991] was 76.1%. The value for `CN(C[C@H]1CCCCO1)[C@@H]1CCN(C(=O)c2nc(Cl)cs2)C1` [ZINC000972168981] was 63.4%. For the compound `O=[N+]([O-])c1cccc([C@H](O)CN2CC(Cc3cccc(C(F)(F)F)c3)C2)c1` [ZINC000792998860], the remaining activity at 1 µM was 3.8%. The value for `Cc1ccc(CN2C[C@@H]3CN(C(=O)c4cccn4C)C[C@@H]3C2)cc1C` [ZINC001048683995] was 61.7%; that for `O=C(Nc1ccc2ncnn2c1)[C@]1(O)CCN(Cc2ccccc2)C1` [ZINC000655168559] was 97.6%; that for `CS[C@@H]1CCN(C[C@@H](O)c2ccccc2C(F)(F)F)C1` [ZINC000830877226] was 78.8%. With `Cc1cccnc1[C@H](NC(=O)N1CCN(C2CCC2)CC1)C(C)C` [ZINC000265281429], the remaining activity at 1 µM is 97.5%. With `O=C(Nc1cnc2ccccc2c1)[C@]1(O)CCN(Cc2ccccc2)C1` [ZINC000524392254], the remaining activity at 1 µM is 93.9%. For the compound `Cc1ccccc1NC(=O)CN1CCC[C@@H]1C[C@H](C)O` [ZINC000228149300], the remaining activity at 1 µM was determined as 113%. For `Cc1n[nH]cc1C(=O)NC1CN(C(=O)[C@H]2C[C@@H]3CCCCN3C2)C1` [ZINC000997292482], the remaining activity at 1 µM was 87.9%. Take `COC(=O)[C@@H](NCC[C@H](C)N(C)Cc1ccccc1)c1cccc(C#N)c1` [ZINC000176805277]: the remaining activity at 1 µM came out at 41.6%.

As for `COc1ccc(C(=O)N(C)C[C@H](C)NCC2CCC(C)(C)CC2)nn1` [ZINC001403624658], the remaining activity at 1 µM was determined as 65.3%.

For `Cc1ccnc2nc(C(=O)NCC3CN(CCCC4CCC4)C3)nn12` [ZINC001032169623], the remaining activity at 1 µM was determined as 92.8%. Regarding `Cc1cnoc1C(=O)NC1CN(C(=O)[C@@H]2CCN(C)S2(=O)=O)C1` [ZINC000998978244], the remaining activity at 1 µM was 98.3%. The value for `COc1ccnc(N2CCN([C@H](C)CCSc3ccccc3)CC2)n1` [ZINC000473272986] was 66.5%; that for `O=C(NC[C@@H]1CNCCO1)N1CCN(S(=O)(=O)C2CC2)CC1` [ZINC000529344158] was 135%; that for `O=C(Nc1cccc(OC(F)(F)F)c1)C(=O)N1CCC[C@@H](N2CCCC2)CC1` [ZINC000120571916] was 17.7%.

Consider `O=C(NC1CC1)C(=O)N1CCN(S(=O)(=O)C[C@@H]2CCCO2)CC1` [ZINC000407973885], for which the remaining activity at 1 µM is 120%. On to `Cc1cc(C(=O)NC[C@@H]2CCN(CC(=O)Nc3cnccn3)C2)on1` [ZINC001028403773], for which the remaining activity at 1 µM worked out at 109%. Consider `CN(C[C@@H](O)CCc1ccccc1)[C@H]1CCN(c2ccccc2F)C1=O` [ZINC000248559983], for which the remaining activity at 1 µM was 87.4%. As to `OC[C@H](N[C@H]1Cc2[nH]c3ccccc3c2C1)C1CCCCC1` [ZINC000669616349], the remaining activity at 1 µM was 56.6%.
